Measurements from patent publication EP2050748A1, “Novel fused pyrimidines” (Bayer Schering Pharma Aktiengesellschaft, priority 2007, dated 2009).

What follows are molecules tested on phosphorylated GSK3 (Ser9) (assay: Cellular pGSK3 assay (phospho-GSK3 ELISA)). Settings: Homo sapiens, MCF7 cells, compound incubated 48h.
Assay type: cell-based
Protocol: In order to study the cellular activity of the compounds according to the present invention, an ELISA-based assay has been established for the phosphorylated protein glycogen synthetase kinase 3 (GSK3). The assay is based on a solid phase sandwich ELISA that detects endogenous levels of phosphorylated GSK3 using a phospho-GSK3 (Ser9) specific antibody (BioSource International, Inc.; Catalog #KHO0461). After incubation with cell lysates, the coated antibody captures the phosphorylated GSK3 protein. Following extensive washing, GSK3 polyclonal antibody is added to detect the captured phospho-GSK3 protein. Secondary antibody (anti-rabbit IgG-HRP) is then used to recognize the bound detection antibody. After the second incubation and washing to remove all the excess anti-rabbit IgG-HRP, a substrate solution is added, which is acted upon by the bound enzyme to produce color. The intensity of this colored product is directly proportional to the concentration of GSK-3β [pS9] present in the original specimen. MCF7 cells (ATCC HTB-22) were seeded into 96 well fate bottom plates at a density of 10000 cells/well. After 24 h 1 µl each of the compound dilutions (test compounds were dissolved as 10 mM solutions in dimethylsulfoxide (DMSO) and subsequently diluted) were added into each well of the 96 well plates and incubated for 48h at 37°C in a humidified athmosphere containing 5% CO2. Cells were harvested and lysed in cell extraction buffer (10 mM Tris, pH 7.4, 100 mM NaCl, 1 mM EDTA, 1 mM EGTA, 1 mM NaF, 20 mM Na4P2O7, 2 mM Na3VO4, 1% Triton X-100, 10vol% glycerol, 0.1vol% SDS, 0.5vol% deoxycholate, 1 mM phenylmethylsulfonylfluorid (PMSF)). The lysate were centrifuged for 10 min. at 4°C and the supernatant were transferred to a new tube. 50 µl of sample diluent (standard diluent buffer, Biosource) were added and 100 µl of cell lysate transferred into the tube and vortexed. 100 µl of each diluted cell lysate were added to the appropriate ELISA well plate and incubated for 3h at room temperature. The plates were washed 4 times with 1x wash buffer (Biosource). 50 µl of detection antibody (GSK3 (Ser9) detection antibody; BioSource) were added to each well and incubated for 30 min. at room temperature. The washing procedure was repeated between each step. 100µl of HRP-linked secondary antibody (anti-mouse IgG HRP-linked antibody) were added to each well and incubated for 30 min. at room temperature. 100µl of TMB substrate (0.05vol% 3,3',5,5' tetramethylbenzidine, 0.1vol% hydrogen peroxide, complex polypeptides in a buffered solution; Biosource) were added to each well and incubated for 30 min. at room temperature. Finally 100 µl of Stop solution (0.05vol% α and β unsaturated carbonyl compound) were added to each well and the plate were shaked gently for a few seconds. The absorbance was measured at λ = 450 nm (Wallac Victor2; Perkin Elmer, USA) within 30 min. after adding the stop solution. The analysis of the data was performed using a statistical program (Excel; Microsoft, USA) and the IC50 of pGSK3 inhibition was determined.

Row | SMILES | IC50 [nM]
1 | c1ccc(-c2cn3ccnc3nc2-c2ccc(CN3CCC(n4cnc(-c5ccccn5)c4)CC3)cc2)cc1 [Example 20, 6-phenyl-7-(4-{[4-(4-pyridin-2-yl-imidazol-1-yl)piperidin-1-yl]methyl}phenyl)imidazo[1,2-a]pyrimidine] | 1000 to 10000
2 | c1ccc(-c2cn3ccnc3nc2-c2ccc(CN3CCC(c4n[nH]c(-c5ccncc5)n4)CC3)cc2)cc1 [Example 6, 6-phenyl-7-(4-{[4-(5-pyridin-4-yl-1,2,4-triazol-3-yl)piperidin-1-yl]methyl}phenyl)imidazo[1,2-a]pyrimidine] | 1000 to 10000
3 | CCc1cnc2nc(-c3ccc(CN4CCC(c5n[nH]c(-c6ccccn6)n5)CC4)cc3)c(-c3ccccc3)cn12 [Example 22, 3-ethyl-6-phenyl-7-(4-{[4-(5-pyridin-2-yl-1,2,4-triazol-3-yl)piperidin-1-yl]methyl}phenyl)imidazo[1,2-a]pyrimidine] | 1000 to 10000
4 | c1ccc(-c2cn3ncnc3nc2-c2ccc(CN3CCC(c4n[nH]c(-c5ccccn5)n4)CC3)cc2)cc1 [Example 2, 6-phenyl-5-(4-([4-(5-pyridin-2-yl-1,2,4-triazol-3-yl)piperidin-1-yl]methyl}phenyl)[1,2,4]triazolo[1,5-a]pyrimidine] | 1000 to 10000
5 | c1ccc(-c2cn3ccnc3nc2-c2ccc(CN3CCC(c4n[nH]c(-c5ncccn5)n4)CC3)cc2)cc1 [Example 18, 6-phenyl-7-(4-{[4-(5-pyrimidin-2-yl-1,2,4-triazol-3-yl)piperidin-1-yl]methyl}phenyl)imidazo[1,2-a]pyrimidine] | 1000 to 10000
6 | c1ccc(-c2cn3nc(C4CC4)nc3nc2-c2ccc(CN3CCC(c4n[nH]c(-c5ccccn5)n4)CC3)cc2)cc1 [Example 4, 2-cyclopropyl-6-phenyl-5-(4-{[4-(5-pyridin-2-yl-1,2,4-triazol-3-yl)piperidin-1-yl]methyl}phenyl)[1,2,4]triazolo[1,5-a]pyrimidine] | 1000 to 10000
7 | C=Cc1cnc2nc(-c3ccc(CN4CCC(c5n[nH]c(-c6ccccn6)n5)CC4)cc3)c(-c3ccccc3)cn12 [Example 15, 6-phenyl-7-(4-{[4-(5-pyridin-2-yl-1,2,4-triazol-3-yl)piperidin-1-yl]methyl}phenyl)-3-vinylimidazo[1,2-a]pyrimidine] | 1000 to 10000
8 | Clc1cnc2nc(-c3ccc(CN4CCC(c5n[nH]c(-c6ccccn6)n5)CC4)cc3)c(-c3ccccc3)cn12 [Example 12, 3-chloro-6-phenyl-7-(4-{[4-(5-pyridin-2-yl-1,2,4-triazol-3-yl)piperidin-1-yl]methyl}phenyl)imidazo[1,2-a]pyrimidine] | 1000 to 10000
9 | c1ccc(-c2cn3ccnc3nc2-c2ccc(CN3CCC(c4cc(-c5ccccn5)n[nH]4)CC3)cc2)cc1 [Example 5, 6-phenyl-7-(4-{[4-(3-pyridin-2-yl-pyrazol-5-yl)piperidin-1-yl]methyl}phenyl)imidazo[1,2-a]pyrimidine] | 1000 to 10000

The remaining lines, values ahead:

Row | IC50 [nM] | SMILES
10 | 1000 to 10000 | Cc1cnc2nc(-c3ccc(CN4CCC(c5n[nH]c(-c6ccccn6)n5)CC4)cc3)c(-c3ccccc3)cn12 [Example 14, 3-methyl-6-phenyl-7-(4-{[4-(5-pyridin-2-yl-1,2,4-triazol-3-yl)piperidin-1-yl]methyl}phenyl)imidazo[1,2-a]pyrimidine]
11 | 1000 to 10000 | Fc1cnc2nc(-c3ccc(CN4CCC(c5n[nH]c(-c6ccccn6)n5)CC4)cc3)c(-c3ccccc3)cn12 [Example 9, 3-fluoro-6-phenyl-7-(4-{[4-(5-pyridin-2-yl-1H-1,2,4-triazol-3-yl)piperidin-1-yl]methyl}phenyl)imidazo[1,2-a]pyrimidine]
12 | 1000 to 10000 | c1ccc(-c2cn3nccc3nc2-c2ccc(CN3CCC(c4n[nH]c(-c5ccccn5)n4)CC3)cc2)cc1 [Example 19, 6-phenyl-5-(4-{[4-(5-pyridin-2-yl-1,2,4-triazol-3-yl)piperidin-1-yl]methyl}phenyl)pyrazolo[1,5-a]pyrimidine]
13 | 1000 to 10000 | C#Cc1cnc2nc(-c3ccc(CN4CCC(c5n[nH]c(-c6ccccn6)n5)CC4)cc3)c(-c3ccccc3)cn12 [Example 13, 3-ethynyl-6-phenyl-7-(4-{[4-(5-pyridin-2-yl-1,2,4-triazol-3-yl)piperidin-1-yl]methyl}phenyl)imidazo[1,2-a]pyrimidine]
14 | 1000 to 10000 | c1ccc(-c2cn3ccnc3nc2-c2ccc(CN3CCC(c4n[nH]c(-c5cnccn5)n4)CC3)cc2)cc1 [Example 21, 6-phenyl-7-(4-{[4-(5-pyrazin-2-yl-1,2,4-triazol-3-yl)piperidin-1-yl]methyl}phenyl)imidazo[1,2-a]pyrimidine]
15 | 1000 to 10000 | N#Cc1cnc2nc(-c3ccc(CN4CCC(c5n[nH]c(-c6ccccn6)n5)CC4)cc3)c(-c3ccccc3)cn12 [Example 8, 6-phenyl-7-(4-{[4-(5-pyridin-2-yl-1,2,4-triazol-3-yl)piperidin-1-yl]methyl}phenyl)imidazo[1,2-a]pyrimidine-3-carbonitrile]
16 | 1000 to 10000 | Cc1nc2nc(-c3ccc(CN4CCC(c5n[nH]c(-c6ccccn6)n5)CC4)cc3)c(-c3ccccc3)cn2n1 [Example 3, 2-methyl-6-phenyl-5-(4-{[4-(5-pyridin-2-yl-1,2,4-triazol-3-yl)piperidin-1-yl]methyl}phenyl)[1,2,4]triazolo[1,5-a]pyrimidine]
17 | 1000 to 10000 | CCc1cn2cc(-c3ccccc3)c(-c3ccc(CN4CCC(c5n[nH]c(-c6ccccn6)n5)CC4)cc3)nc2n1 [Example 17, 2-ethyl-6-phenyl-7-(4-{[4-(5-pyridin-2-yl-1,2,4-triazol-3-yl)piperidin-1-yl]methyl}phenyl)imidazo[1,2-a]pyrimidine]
18 | < 1000 | CNc1c(-c2ccccc2)c(-c2ccc(CN3CCC(c4n[nH]c(-c5ccccn5)n4)CC3)cc2)nc2nccn12 [Example 10, N-methyl-6-phenyl-7-(4-{[4-(5-pyridin-2-yl-1,2,4-triazol-3-yl)piperidin-1-yl]methyl}phenyl)imidazo[1,2-a]pyrimidin-5-amine]
19 | < 1000 | Brc1cnc2nc(-c3ccc(CN4CCC(c5n[nH]c(-c6ccccn6)n5)CC4)cc3)c(-c3ccccc3)cn12 [Example 11, 3-bromo-6-phenyl-7-(4-{[4-(5-pyridin-2-yl-1,2,4-triazol-3-yl)piperidin-1-yl]methyl}phenyl)imidazo[1,2-a]pyrimidine]
20 | < 1000 | c1ccc(-c2cn3nc(C4CCC4)nc3nc2-c2ccc(CN3CCC(c4n[nH]c(-c5ccccn5)n4)CC3)cc2)cc1 [Example 7, 2-cyclobutyl-6-phenyl-5-(4-{[4-(5-pyridin-2-yl-1,2,4-triazol-3-yl)piperidin-1-yl]methyl}phenyl)[1,2,4]triazolo[1,5-a]pyrimidine]
21 | < 1000 | c1ccc(-c2cn3ccnc3nc2-c2ccc(CN3CCC(c4nc(-c5ccccn5)n[nH]4)CC3)cc2)cc1 [Example 1, 6-phenyl-7-(4-{[4-(3-pyridin-2-yl-1,2,4-triazol-5-yl)piperidin-1-yl]methyl}phenyl)imidazo[1,2-a]pyrimidine]
